From BindingDB's records for patent US10913753 (Valo Early Discovery, 2021)

Assays:
[1] = molecular target: T1, Ubiquitin carboxyl-terminal hydrolase 28 (Homo sapiens, UniProt Q96RU2); test: Biochemical Assay
T1 sequence (Q96RU2 whole entry): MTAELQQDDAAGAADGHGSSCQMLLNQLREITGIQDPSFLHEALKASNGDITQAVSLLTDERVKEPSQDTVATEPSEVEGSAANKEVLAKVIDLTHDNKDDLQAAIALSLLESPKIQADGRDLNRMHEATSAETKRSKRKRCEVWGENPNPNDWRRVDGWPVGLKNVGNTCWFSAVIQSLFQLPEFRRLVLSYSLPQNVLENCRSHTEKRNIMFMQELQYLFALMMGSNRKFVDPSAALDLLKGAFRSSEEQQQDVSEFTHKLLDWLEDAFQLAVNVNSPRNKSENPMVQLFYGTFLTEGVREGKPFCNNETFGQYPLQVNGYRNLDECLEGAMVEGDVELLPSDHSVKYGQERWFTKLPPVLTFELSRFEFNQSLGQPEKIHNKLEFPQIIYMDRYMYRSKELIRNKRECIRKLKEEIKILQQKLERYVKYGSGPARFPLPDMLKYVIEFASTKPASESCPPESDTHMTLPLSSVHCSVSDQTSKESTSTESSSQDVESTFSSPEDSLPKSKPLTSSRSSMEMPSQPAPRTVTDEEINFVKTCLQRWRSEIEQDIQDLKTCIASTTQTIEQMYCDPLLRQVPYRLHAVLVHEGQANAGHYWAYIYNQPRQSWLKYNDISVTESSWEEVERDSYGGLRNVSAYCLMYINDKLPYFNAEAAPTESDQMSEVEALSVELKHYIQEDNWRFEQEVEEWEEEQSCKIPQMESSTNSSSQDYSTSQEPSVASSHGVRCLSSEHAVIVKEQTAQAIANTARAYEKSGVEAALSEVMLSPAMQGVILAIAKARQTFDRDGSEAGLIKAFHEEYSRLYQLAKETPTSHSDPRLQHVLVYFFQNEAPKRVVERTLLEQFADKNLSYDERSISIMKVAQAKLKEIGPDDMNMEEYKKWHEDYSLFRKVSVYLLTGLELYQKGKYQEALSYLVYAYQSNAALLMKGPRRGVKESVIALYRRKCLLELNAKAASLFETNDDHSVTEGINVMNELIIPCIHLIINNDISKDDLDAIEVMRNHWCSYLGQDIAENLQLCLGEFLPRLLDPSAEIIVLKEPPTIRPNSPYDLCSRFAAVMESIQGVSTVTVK
Method: USP28: The assay was performed in a final volume of 20 uL in assay buffer containing 20 mM Tris-HCl (pH 8.0, (1M Tris-HCl, pH 8.0 solution; Corning 46-031-CM)), 2 mM CaCl2 (1M Calcium Chloride solution; Sigma #21114) 2 mM BME (2-Mercaptoethanol; Sigma 63689-25ML -F), 0.01% Prionex (0.22 uM filtered, Sigma #G-0411), and 0.01% Triton X-100. Stock compound solutions were stored at […] as 10 mM in DMSO. Up to 1 month prior to the assay, 2 mM test compounds were pre-dispensed into assay plates (Black, low volume; Corning #3820) and […] Prestamped assay plates were allowed to come to room temperature on the day of the assay. For the screen, 100 nL of 2 mM was pre-dispensed for a final screening concentration of 10 uM (DMSO(fc)=0.5%). […] Plates were incubated stacked for 90 minutes at room temperature before fluorescence was read on the Envision (Excitation at 485 nm and Emission at 535 nm; Perkin Elmer) or on the PheraSTAR (Excitation at 485 nm and Emission at 535 nm; BMG Labtech).

[2] = molecular target: T2, Ubiquitin carboxyl-terminal hydrolase 25 (Homo sapiens, UniProt Q9UHP3); test: Biochemical Assay
T2 sequence (Q9UHP3 whole entry): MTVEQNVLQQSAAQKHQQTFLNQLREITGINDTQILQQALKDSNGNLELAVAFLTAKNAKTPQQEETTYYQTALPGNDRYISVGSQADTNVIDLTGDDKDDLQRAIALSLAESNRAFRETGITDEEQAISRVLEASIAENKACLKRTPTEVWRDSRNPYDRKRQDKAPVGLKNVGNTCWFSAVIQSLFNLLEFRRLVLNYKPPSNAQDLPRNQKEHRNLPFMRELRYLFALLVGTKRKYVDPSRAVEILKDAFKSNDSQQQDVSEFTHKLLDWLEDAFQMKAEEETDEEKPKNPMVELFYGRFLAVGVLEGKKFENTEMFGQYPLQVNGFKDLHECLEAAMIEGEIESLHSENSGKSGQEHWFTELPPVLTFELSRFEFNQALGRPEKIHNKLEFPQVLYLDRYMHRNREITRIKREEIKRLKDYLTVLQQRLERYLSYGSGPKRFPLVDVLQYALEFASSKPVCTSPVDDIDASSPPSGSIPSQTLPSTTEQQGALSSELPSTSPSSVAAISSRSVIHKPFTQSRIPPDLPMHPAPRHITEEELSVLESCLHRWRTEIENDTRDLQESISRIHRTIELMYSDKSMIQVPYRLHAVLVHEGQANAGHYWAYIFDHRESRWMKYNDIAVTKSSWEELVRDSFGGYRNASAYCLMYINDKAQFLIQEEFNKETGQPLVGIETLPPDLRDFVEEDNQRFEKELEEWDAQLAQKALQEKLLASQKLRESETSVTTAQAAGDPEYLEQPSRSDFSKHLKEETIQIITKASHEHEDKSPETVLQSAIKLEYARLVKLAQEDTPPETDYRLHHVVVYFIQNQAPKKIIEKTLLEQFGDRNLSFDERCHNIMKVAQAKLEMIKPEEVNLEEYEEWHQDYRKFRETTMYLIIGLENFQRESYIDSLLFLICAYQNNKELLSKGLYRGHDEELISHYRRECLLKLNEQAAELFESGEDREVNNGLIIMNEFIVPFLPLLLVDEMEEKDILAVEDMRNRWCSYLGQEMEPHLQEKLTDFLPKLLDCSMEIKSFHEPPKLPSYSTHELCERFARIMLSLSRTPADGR
Method: USP25: The assay was performed in a final volume of 9 uL in assay buffer containing 20 mM Tris-HCl (pH 8.0, (1M Tris-HC1, pH 8.0 solution; Corning 46-031-CM)), 3 mM BME (2-Mercaptoethanol; Sigma 63689-25ML-F), 0.03% BGG (0.22 uM filtered, Sigma, G7516-25G), and 0.01% Triton X-100 (Sigma, T9284-10L). Nanoliter quantities of 10-point, 3-fold serial dilution in DMSO was pre-dispensed into 1536 assay plates (Corning, #3724BC) for a final test concentration of 25 uM to 1.3 nM, top to lowest dose, respectively. Enzyme USP25, construct USP25-His6, (Boston Biochem E-546). Concentration and incubation times were optimized for the maximal signal-to-background while maintaining initial velocity conditions at a fixed substrate concentration. The final concentration of the enzyme in the assay was 75 pM. Final substrate (Ub -Rh110; Ubiquitin-Rhodamine 110, R&D Systems #U-555) concentration was 25 nM with [Ub -Rh110] Km. 3 uL of 2x enzyme was added to assay plates (pre-stamped with compound) preincubated with USP25 for 30 minutes and then 3 uL of 2x Ub-Rh110 was added to assay plates. Plates were incubated for 45 minutes at room temperature before addition of 3 uL of stop solution (final concentration of 10 mM citric acid (Sigma, 251275-500G)). Fluorescence was read on the Envision (Excitation at 485 nm and Emission at 535 nm; Perkin Elmer) or on the PheraSTAR (Excitation at 485 nm and Emission at 535 nm; BMG Labtech).

Row | SMILES | IC50 [1] | IC50 [2]
1 | Nc1c(C(=O)NCCc2ccc([C@H]3CCNC3)cc2)sc2ncccc12 [US10913753, Compound I-180] | < 200 nM | in the range around 1100 nM
2 | Nc1c(C(=O)NCCc2ccc(C3CCNC3)cc2)sc2ncccc12 (stereo unspecified) [US10913753, Compound I-181] | < 200 nM | in the range around 1100 nM
3 | CN[C@H]1CN(c2nc(F)c(CCNC(=O)c3sc4nc(C)ccc4c3N)cc2F)CC1C (stereo partly specified) [US10913753, Compound I-214] | in the range around 1100 nM | in the range around 6000 nM
